Assay results as given in paper PMC12067350, “Discovery of Thieno[3,2‑b]pyridine-5-carboxamide and 2,3-Difluorobenzamide Negative Allosteric Modulators of Metabotropic Glutamate Receptor Subtype 5” (ACS Medicinal Chemistry Letters, 2025).

Experiments:
Type in all cases: in vitro ADME
[1] = Binding in plasma from rat (equilibrium dialysis); details: fraction unbound
Procedure: Binding in plasma from rat and human.
Determination of compounds’ fraction unbound (f u) in plasma from rat and human was conducted in vitro via equilibrium dialysis using HTDialysis membrane plates. Dialysis membranes (four paired strips per HTD assay) were hydrated as described by the manufacturer and inserted into the HTD plate, which was assembled and prepared for sample addition by the dispensing of blank buffer (DPBS, 100 µL/well) into the ‘top half’ of each membrane-split well. Each compound was diluted into plasma from each species (5 µM final concentration), which was aliquoted in triplicate to the ‘bottom half’ of the prepared HTD plate wells. The HTD plate was sealed and incubated for 6 hours at 37 °C. […] Supernatant (60 µL) from each well of the daughter plates was then transferred to the corresponding wells of new daughter plates (96-shallow-well, V bottom) containing water (Milli-Q, 60 µL/well), and the plates were sealed in preparation for LC-MS/MS analysis (see below). fu was calculated as (analyte to IS MS peak area ratio from Trans-buffer side) / (analyte to IS MS peak area ratio from Cis-plasma side). Mean values for each species were calculated from 3 replicates. […]
Mean values for each species were calculated from 3 replicates.

CYP1A2 = molecular target: T1, CYP1A2 (Homo sapiens, UniProt P05177); assay: Cytochrome P450 inhibition using human liver microsomes, CYP1A2; details: read-out: CYP 450 IC50, 1A2
T1 construct: from tissue; host or cells: human liver microsomes
T1 sequence (P05177 1-516): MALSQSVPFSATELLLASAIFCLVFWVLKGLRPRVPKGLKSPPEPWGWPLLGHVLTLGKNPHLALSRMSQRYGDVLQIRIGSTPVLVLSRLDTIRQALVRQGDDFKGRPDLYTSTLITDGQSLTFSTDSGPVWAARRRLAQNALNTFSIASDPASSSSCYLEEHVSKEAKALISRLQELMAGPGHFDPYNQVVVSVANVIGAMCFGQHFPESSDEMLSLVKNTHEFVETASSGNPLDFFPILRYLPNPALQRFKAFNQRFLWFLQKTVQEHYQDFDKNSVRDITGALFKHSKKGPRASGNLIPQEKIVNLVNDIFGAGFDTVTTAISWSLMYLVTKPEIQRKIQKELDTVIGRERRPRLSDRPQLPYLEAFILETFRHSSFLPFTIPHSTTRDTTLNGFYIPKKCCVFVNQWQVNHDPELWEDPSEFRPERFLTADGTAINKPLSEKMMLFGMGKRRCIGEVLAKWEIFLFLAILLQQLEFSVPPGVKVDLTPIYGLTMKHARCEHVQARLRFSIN
Procedure: (§1) Cytochrome P450 inhibition using Liver Microsomes.
(§2) The ability of compounds to inhibit cytochrome P450s (CYPs) was tested using human liver microsomes and a cocktail of substrates specific for CYP1A2, 2C9, 2D6 and 3A4. Compounds were incubated at 37C in presence of human liver microsomes (0.1 mg/ml) at 30, 10, 3, 1, 0.3 and 0.1 µM. A cocktail of substrate was also added for each CYP tested: phenacetin (10 µM, CYP1A2), diclofenac (5 µM, CYP2C9), dextromethorphan (5 µM, CYP2D6) and midazolam (2 µM, CYP3A4). HLM were also incubated with the control inhibitor miconazole at 3, 1, 0.3, 0.1, 0.03 and 0.01 µM. […]
(§3) The concentrations of CYP-specific metabolites generated at the end of the reaction were quantified by mass spectrometry using standard curves for each metabolite: acetaminophen (CYP1A2), 4-hydroxydiclofenac (CYP2C9), dextrophan (CYP2D6) and 1-hydroxymidazolam (CYP3A4). A concentration response curve for each metabolite was generated and IC50s were calculated using Prism. The LC-MS/MS transitions for metabolite quantifications are as follows. […]
(§4) Prepared samples were injected (10 µL each) onto an AB Sciex Triple Quad 4500 mass spectrometer system with an Agilent 1260 Infinity II pump and autosampler. […] Quantitation of compounds was performed via AB Sciex Multiquant software using the raw analyte:IS peak area ratios. […]

CYP3A4 = molecular target: T2, CYP3A4 (Homo sapiens, UniProt P08684); assay: Cytochrome P450 inhibition using human liver microsomes, CYP3A4; details: read-out: CYP 450 IC50, 3A4
T2 construct: from tissue; host or cells: human liver microsomes
Procedure: as §1, §2, §3, §4

T2 sequence (P08684 whole entry): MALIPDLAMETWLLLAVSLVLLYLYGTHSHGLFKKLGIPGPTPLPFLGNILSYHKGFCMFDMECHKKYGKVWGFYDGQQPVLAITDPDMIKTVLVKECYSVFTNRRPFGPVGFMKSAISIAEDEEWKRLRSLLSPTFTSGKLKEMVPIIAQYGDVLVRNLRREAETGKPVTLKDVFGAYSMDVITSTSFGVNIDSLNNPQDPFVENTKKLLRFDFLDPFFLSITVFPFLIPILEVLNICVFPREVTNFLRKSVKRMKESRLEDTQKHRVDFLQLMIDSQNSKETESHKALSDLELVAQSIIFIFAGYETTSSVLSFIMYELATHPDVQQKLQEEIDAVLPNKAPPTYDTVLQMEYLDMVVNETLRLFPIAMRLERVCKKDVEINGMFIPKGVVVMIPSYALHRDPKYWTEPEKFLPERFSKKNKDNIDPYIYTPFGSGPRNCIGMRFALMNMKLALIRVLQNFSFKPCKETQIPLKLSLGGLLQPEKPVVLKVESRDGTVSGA

rat f u,plasma [1]	IC50 (CYP1A2) [nM]	IC50 (CYP3A4) [nM]	Structure (SMILES)
0.027	1200	> 30000	Cc1csc(NC(=O)c2cc(O[C@@H]3CCOC3)c3sccc3n2)n1 [19aA]
0.040	1300	> 30000	Cc1csc(NC(=O)c2cc(O[C@@H]3CCOC3)cc(F)c2F)n1 [27cA]
